In patent US9969699B2, “Cancer cell growth inhibitor, anticancer agent, and method for screening same, as well as novel compound” (Microbial Chemistry Research Foundation, priority 2014, dated 2018):

Tests used:
NIH3T3/EGFR vIII cells = assay: 3D cell culture step (environment without adhesion scaffold), proliferation of NIH3T3/EGFR vIII cells; assay type: cell-based, mouse; conditions: for IC50: Mus musculus, 72 h, NIH3T3/EGFR vIII cells, Ultra Low Attachment plate, 3 days, […]-GLO
NIH3T3 cells = assay: 2D cell culture step (environment with adhesion scaffold), proliferation of NIH3T3 cells; assay type: cell-based; conditions: Mus musculus, 72 h; NIH3T3 cells, TC-treated plate, 3 days, […]-GLO; read-out: IC50 2D cell culture step
Protocol: Note that, as a negative control, the NIH3T3 cells at 2×10^3 cells/100 were seeded to the same plate in a volume of 100 μL per well and cultured at 37° C. in the presence of 5% CO2 for 3 days without the addition of the test substance.
Note that, Dulbecco's Modified Eagle Medium supplemented with 5% FBS was used for the culture.
A cell proliferation inhibition rate in the 2D cell culture step was calculated according to (Expression 2) below. Cell proliferation inhibition rate(%)=(1−D/E)×100 (Expression 2)
In the (Expression 2), D denotes the number of viable NIH3T3 cells when the test substance was added, and E denotes the number of viable NIH3T3 cells when the test substance was not added.

NIH3T3/EGFRWT cells = assay: 3D cell culture step, NIH3T3/EGFRWT cells in EGF-including medium; assay type: cell-based, mouse; conditions: Test Example 3, NIH3T3/EGFRWT cells, EGF-including medium
Protocol: (§1) After the 3 days of culture, the number of viable cells was counted by […]-GLO (trademark) Luminescent Cell Viability Assay (available from Promega), which was a method for quantitating ATP in viable cells. A cell proliferation inhibition rate in the 3D cell culture step was calculated according to (Expression 3) below. Cell proliferation inhibition rate(%)=(1−X/Y)×100 (Expression 3)
(§2) In the (Expression 3), X denotes the number of viable cells when the test substance was added, and Y denotes the number of viable cells when the test substance was not added.

U251 cells = assay: 3D cell culture step, EGFR vIII gene non-expressing brain tumor cells U251; assay type: cell-based; conditions: Test Example 3, U251 cells
Protocol: (§3) The following 3 brain tumor cells were used as the EGFR vIII gene non-expressing cells. • U251 cells (available from ATCC) • U87MG cells (available from ATCC) • KS-1 cells (available from ATCC) <3D Cell Culture Step>
as §1, §2

U87MG cells = assay: 3D cell culture step, EGFR vIII gene non-expressing brain tumor cells U87MG; assay type: cell-based; conditions: Test Example 3, U87MG cells
Protocol: as §3, §1, §2

KS-1 cells = assay: 3D cell culture step, EGFR vIII gene non-expressing brain tumor cells KS-1; assay type: cell-based; conditions: Test Example 3, KS-1 cells
Protocol: as §3, §1, §2

[1] = Acute toxicity test, intraperitoneal administration; assay type: in vivo, ICR mice; conditions: for Organ weight Heart / Organ weight Kidney (Left) / Organ weight Kidney (Right) / Organ weight Liver / Organ weight Lung / Organ weight Spleen / Organ weight Thymus: two weeks after
Source text: Two-weeks after the compounds represented by the Structural Formula (1) at the above concentrations were intraperitoneally administered, the mice were dissected and organs thereof were weighed.
Two-weeks after the compounds represented by the Structural Formula (8) at the above concentrations were intraperitoneally administered, the mice were dissected and organs thereof were weighed.

[2] = Acute toxicity test, oral administration; assay type: in vivo, ICR mice; conditions: for Organ weight Heart / Organ weight Kidney (Left) / Organ weight Kidney (Right) / Organ weight Liver / Organ weight Lung / Organ weight Spleen / Organ weight Thymus: two weeks after
Source text: Two-weeks after the compounds represented by the Structural Formula (1) at the above concentrations were orally administered, the mice were dissected and organs thereof were weighed.
Two-weeks after the compounds represented by the Structural Formula (8) at the above concentrations were orally administered, the mice were dissected and organs thereof were weighed.

[3] = tested on: NIH3T3/EGFR vIII cell-transplanted tumor
[4] = 0.098 mg/kg/0.2 mL, intraperitoneally once
[5] = 0.195 mg/kg/0.2 mL, intraperitoneally once
[6] = 0.39 mg/kg/0.2 mL, intraperitoneally once
[7] = 0.78 mg/kg/0.2 mL, intraperitoneally once
[8] = 1.56 mg/kg/0.2 mL, intraperitoneally once
[9] = 3.125 mg/kg/0.2 mL, intraperitoneally once
[10] = 6.25 mg/kg/0.2 mL, intraperitoneally once
[11] = 12.5 mg/kg/0.2 mL, intraperitoneally once
[12] = 25 mg/kg/0.2 mL, intraperitoneally once
[13] = 50 mg/kg/0.4 mL, intraperitoneally once
[14] = 0.098 mg/kg/0.2 mL, orally once
[15] = 30 mg/kg intraperitoneally once a day, day 1 to day 17

COc1cc2ncnc(Nc3cccc(Cl)c3)c2cc1OC [AG1478, reference compound]
IC50 (NIH3T3/EGFR vIII cells): 1000 nM | inhibiting activity against scaffold-independent proliferation capacity (NIH3T3/EGFR vIII cells; Test Example 3, NIH3T3/EGFR vIII cells): exhibited an inhibiting activity | inhibition of proliferation of NIH3T3 cells expressing EGFR mutant vIII in the 3D cell culture step (NIH3T3/EGFR vIII cells; result in words from Table 1): inhibited proliferation | IC50 (NIH3T3 cells): 50000 nM | inhibiting activity against scaffold-independent proliferation capacity (NIH3T3/EGFRWT cells): exhibited an inhibiting activity | inhibiting activity against scaffold-independent proliferation capacity (U251 cells): did not exhibit an inhibiting activity | inhibiting activity against scaffold-independent proliferation capacity (U87MG cells): did not exhibit an inhibiting activity | inhibiting activity against scaffold-independent proliferation capacity (KS-1 cells): did not exhibit an inhibiting activity

Nc1ccc(I)cc1-c1nc2ccccc2[nH]c1=O [Structural Formula (8), 3-(2-Amino-5-iodophenyl)-2(1H)-quinoxalinone]
cell proliferation inhibiting activity compared with AG1478, Gefitinib and Erlotinib (NIH3T3/EGFR vIII cells; 3D cell culture step): more significant cell proliferation inhibiting activity | IC50 (NIH3T3/EGFR vIII cells): 10 nM | IC50 (NIH3T3 cells): > 10000 nM | Organ weight Heart [1, 4]: 118.0 mg | Organ weight Kidney (Left) [1, 4]: 160.0 mg | Organ weight Kidney (Right) [1, 4]: 172.0 mg | Organ weight Liver [1, 4]: 1476.0 mg | Organ weight Lung [1, 4]: 165.0 mg | Organ weight Spleen [1, 4]: 176.0 mg | Organ weight Thymus [1, 4]: 59.0 mg | Organ weight Heart [1, 5]: 106.0 mg | Organ weight Kidney (Left) [1, 5]: 174.0 mg | Organ weight Kidney (Right) [1, 5]: 181.0 mg | Organ weight Liver [1, 5]: 1442.0 mg | Organ weight Lung [1, 5]: 166.0 mg | Organ weight Spleen [1, 5]: 98.0 mg | Organ weight Thymus [1, 5]: 66.0 mg | Organ weight Heart [1, 6]: 108.0 mg | Organ weight Kidney (Left) [1, 6]: 146.0 mg | Organ weight Kidney (Right) [1, 6]: 158.0 mg | Organ weight Liver [1, 6]: 1234.0 mg | Organ weight Lung [1, 6]: 151.0 mg | Organ weight Spleen [1, 6]: 69.0 mg | Organ weight Thymus [1, 6]: 47.0 mg | Organ weight Heart [1, 7]: 110.0 mg | Organ weight Kidney (Left) [1, 7]: 177.0 mg | Organ weight Kidney (Right) [1, 7]: 181.0 mg | Organ weight Liver [1, 7]: 1324.0 mg | Organ weight Lung [1, 7]: 163.0 mg | Organ weight Spleen [1, 7]: 127.0 mg | Organ weight Thymus [1, 7]: 60.0 mg | Organ weight Heart [1, 8]: 125.0 mg | Organ weight Kidney (Left) [1, 8]: 161.0 mg | Organ weight Kidney (Right) [1, 8]: 179.0 mg | Organ weight Liver [1, 8]: 1738.0 mg | Organ weight Lung [1, 8]: 183.0 mg | Organ weight Spleen [1, 8]: 158.0 mg | Organ weight Thymus [1, 8]: 94.0 mg | Organ weight Heart [1, 9]: 120.0 mg | Organ weight Kidney (Left) [1, 9]: 172.0 mg | Organ weight Kidney (Right) [1, 9]: 175.0 mg | Organ weight Liver [1, 9]: 1710.0 mg | Organ weight Lung [1, 9]: 165.0 mg | Organ weight Spleen [1, 9]: 132.0 mg | Organ weight Thymus [1, 9]: 60.0 mg | Organ weight Heart [1, 10]: 120.0 mg | Organ weight Kidney (Left) [1, 10]: 158.0 mg | Organ weight Kidney (Right) [1, 10]: 178.0 mg | Organ weight Liver [1, 10]: 1641.0 mg | Organ weight Lung [1, 10]: 168.0 mg | Organ weight Spleen [1, 10]: 124.0 mg | Organ weight Thymus [1, 10]: 53.0 mg | Organ weight Heart [1, 11]: 108.0 mg | Organ weight Kidney (Left) [1, 11]: 150.0 mg | Organ weight Kidney (Right) [1, 11]: 149.0 mg | Organ weight Liver [1, 11]: 1356.0 mg | Organ weight Lung [1, 11]: 165.0 mg | Organ weight Spleen [1, 11]: 111.0 mg | Organ weight Thymus [1, 11]: 78.0 mg | Organ weight Heart [1, 12]: 108.0 mg | Organ weight Kidney (Left) [1, 12]: 149.0 mg | Organ weight Kidney (Right) [1, 12]: 155.0 mg | Organ weight Liver [1, 12]: 1564.0 mg | Organ weight Lung [1, 12]: 155.0 mg | Organ weight Spleen [1, 12]: 138.0 mg | Organ weight Thymus [1, 12]: 103.0 mg | Organ weight Heart [1, 13]: 120.0 mg | Organ weight Kidney (Left) [1, 13]: 150.0 mg | Organ weight Kidney (Right) [1, 13]: 152.0 mg | Organ weight Liver [1, 13]: 1551.0 mg | Organ weight Lung [1, 13]: 166.0 mg | Organ weight Spleen [1, 13]: 98.0 mg | Organ weight Thymus [1, 13]: 66.0 mg | abnormalities ([1]; intraperitoneally once, any doses (0.098 to 50 mg/kg)): no abnormalities were found at any doses | autopsy findings ([1]; mouse, in vivo, ip): slightly lighter livers, and slightly lighter or heavier spleens were found at some doses | Organ weight Heart [2, 14]: 124.0 mg | Organ weight Kidney (Left) [2, 14]: 165.0 mg | Organ weight Kidney (Right) [2, 14]: 181.0 mg | Organ weight Liver [2, 14]: 1322.0 mg | Organ weight Lung [2, 14]: 182.0 mg | Organ weight Spleen [2, 14]: 125.0 mg | Organ weight Heart ([2]; 6.25 mg/kg/0.2 mL, orally once): 119.0 mg | Organ weight Lung ([2]; 6.25 mg/kg/0.2 mL, orally once): 171.0 mg | Organ weight Thymus ([2]; 6.25 mg/kg/0.2 mL, orally once): 74.0 mg | Organ weight Heart ([2]; 12.5 mg/kg/0.2 mL, orally once): 111.0 mg | Organ weight Kidney (Left) ([2]; 12.5 mg/kg/0.2 mL, orally once): 150.0 mg | Organ weight Kidney (Right) ([2]; 12.5 mg/kg/0.2 mL, orally once): 167.0 mg | Organ weight Liver ([2]; 12.5 mg/kg/0.2 mL, orally once): 1375.0 mg | Organ weight Lung ([2]; 12.5 mg/kg/0.2 mL, orally once): 159.0 mg | Organ weight Spleen ([2]; 12.5 mg/kg/0.2 mL, orally once): 168.0 mg | Organ weight Thymus ([2]; 12.5 mg/kg/0.2 mL, orally once): 90.0 mg | Organ weight Heart ([2]; 25 mg/kg/0.2 mL, orally once): 110.0 mg | Organ weight Kidney (Left) ([2]; 25 mg/kg/0.2 mL, orally once): 140.0 mg | Organ weight Kidney (Right) ([2]; 25 mg/kg/0.2 mL, orally once): 152.0 mg | Organ weight Liver ([2]; 25 mg/kg/0.2 mL, orally once): 1184.0 mg | Organ weight Lung ([2]; 25 mg/kg/0.2 mL, orally once): 163.0 mg | Organ weight Spleen ([2]; 25 mg/kg/0.2 mL, orally once): 92.0 mg | Organ weight Thymus ([2]; 25 mg/kg/0.2 mL, orally once): 39.0 mg | Organ weight Heart ([2]; 50 mg/kg/0.4 mL, orally once): 116.0 mg | Organ weight Kidney (Left) ([2]; 50 mg/kg/0.4 mL, orally once): 158.0 mg | Organ weight Kidney (Right) ([2]; 50 mg/kg/0.4 mL, orally once): 175.0 mg | Organ weight Liver ([2]; 50 mg/kg/0.4 mL, orally once): 1331.0 mg | Organ weight Lung ([2]; 50 mg/kg/0.4 mL, orally once): 176.0 mg | Organ weight Spleen ([2]; 50 mg/kg/0.4 mL, orally once): 133.0 mg | Organ weight Thymus ([2]; 50 mg/kg/0.4 mL, orally once): 87.0 mg | autopsy findings ([2]; mouse, in vivo, po): slightly lighter livers and slightly heavier spleens were found at some doses | abnormalities ([2]; orally once, any doses (0.098 to 50 mg/kg)): no abnormalities were found at any doses | tumor weight versus negative control group ([3]; 30 mg/kg intraperitoneally once a day, 17 days after transplantation, t<0.05): significantly different | mouse body weight (weight loss) [3, 15]: weight loss was not observed | toxicity [3, 15]: no toxicity | tumor proliferation inhibiting activity [3, 15]: exhibited the tumor proliferation inhibiting activity | tumor proliferation inhibiting activity compared with Gefitinib ([3]; 30 mg/kg intraperitoneally vs Gefitinib 100 mg/kg orally): comparable
